Here are results for 24 compounds from ChEMBL document CHEMBL1131872, “3-Amidinophenylalanine-based inhibitors of urokinase” (Bioorg Med Chem Lett, 1999).

pKi: −log10 of the molar value.

By pKi is commonly meant −log10 of the Ki, conventionally taken in molar units.

In assay [1] the target is T1, Urokinase-type plasminogen activator (Homo sapiens, UniProt P00749). The assay can be described thus: Tested for inhibition of plasminogen activator urokinase (microPa).
Assay [2] concerns the target T2, Plasminogen (Homo sapiens, UniProt P00747). Kind of assay: Tested for inhibition of plasmin.
For assay [3], the target named is T3, Serine protease 1 (Bos taurus, UniProt P00760).
T3 sequence (P00760 whole entry): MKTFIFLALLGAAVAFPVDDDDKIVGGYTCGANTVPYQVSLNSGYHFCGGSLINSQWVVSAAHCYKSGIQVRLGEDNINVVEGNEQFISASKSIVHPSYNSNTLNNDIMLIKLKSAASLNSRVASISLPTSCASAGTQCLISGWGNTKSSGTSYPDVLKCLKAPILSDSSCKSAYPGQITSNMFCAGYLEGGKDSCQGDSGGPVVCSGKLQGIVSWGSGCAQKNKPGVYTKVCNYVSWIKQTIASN
The assay can be described thus: Tested for inhibition of trypsin.

For assay [4], the target named is T1, Urokinase-type plasminogen activator. The assay can be described thus: Compound was tested for inhibition of plasminogen activator urokinase (microPa).
Assay [5] has as its target Coagulation factor X (Bos taurus, UniProt P00743). The assay can be described thus: Compound was tested for inhibition of Coagulation factor X.
The target of assay [6] is T1, Urokinase-type plasminogen activator. The assay can be described thus: Compound was tested for inhibition of plasminogen activator urokinase (microPa).
Assay [7] has as its target Plasma kallikrein (Homo sapiens, UniProt P03952). The assay can be described thus: Compound was tested for inhibition of plasma kallikrein.
The target in assay [8] is T2, Plasminogen. The assay can be described thus: Compound was tested for inhibition of plasmin.
Assay [9] is described as follows: Compound was tested for inhibition of protein Ca.
Assay [10] has as its target Prothrombin (Homo sapiens, UniProt P00734). Kind of assay: Compound was tested for inhibition of thrombin. Also on record: species or system Bos taurus.
The target in assay [11] is T3, Serine protease 1. The assay can be described thus: Compound was tested for inhibition of trypsin.
The nature of assay [12]: Compound was tested for inhibition of sc-tissue plasminogen activator.

T2 sequence (P00747 97-580 limits assumed): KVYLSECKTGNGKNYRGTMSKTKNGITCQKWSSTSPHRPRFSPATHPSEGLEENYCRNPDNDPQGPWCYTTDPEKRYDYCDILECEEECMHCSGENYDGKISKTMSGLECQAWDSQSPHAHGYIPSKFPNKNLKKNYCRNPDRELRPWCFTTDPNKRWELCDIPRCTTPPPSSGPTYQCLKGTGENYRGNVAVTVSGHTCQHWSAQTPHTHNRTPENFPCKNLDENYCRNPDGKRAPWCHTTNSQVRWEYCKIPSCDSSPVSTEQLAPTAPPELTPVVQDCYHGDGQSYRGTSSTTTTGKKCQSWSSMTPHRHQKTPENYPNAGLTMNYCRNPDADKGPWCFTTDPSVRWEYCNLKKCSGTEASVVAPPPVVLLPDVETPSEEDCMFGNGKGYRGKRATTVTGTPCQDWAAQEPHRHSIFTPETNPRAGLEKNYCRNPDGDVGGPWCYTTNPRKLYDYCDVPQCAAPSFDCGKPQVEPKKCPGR
T2 sequence (P00747 581-810 limits assumed): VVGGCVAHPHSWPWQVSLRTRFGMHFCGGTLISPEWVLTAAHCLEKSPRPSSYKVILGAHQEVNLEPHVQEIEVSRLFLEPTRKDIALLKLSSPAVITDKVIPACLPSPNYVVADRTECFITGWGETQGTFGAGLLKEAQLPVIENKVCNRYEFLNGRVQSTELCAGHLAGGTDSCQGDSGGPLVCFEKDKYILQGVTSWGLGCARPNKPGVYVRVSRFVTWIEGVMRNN
Chain of Coagulation factor X (P00743 41-180 limits assumed): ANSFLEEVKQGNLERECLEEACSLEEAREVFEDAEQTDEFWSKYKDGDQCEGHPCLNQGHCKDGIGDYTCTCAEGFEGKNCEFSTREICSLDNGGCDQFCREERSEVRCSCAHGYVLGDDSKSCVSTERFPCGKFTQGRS
Chain of Coagulation factor X (P00743 234-492 limits assumed): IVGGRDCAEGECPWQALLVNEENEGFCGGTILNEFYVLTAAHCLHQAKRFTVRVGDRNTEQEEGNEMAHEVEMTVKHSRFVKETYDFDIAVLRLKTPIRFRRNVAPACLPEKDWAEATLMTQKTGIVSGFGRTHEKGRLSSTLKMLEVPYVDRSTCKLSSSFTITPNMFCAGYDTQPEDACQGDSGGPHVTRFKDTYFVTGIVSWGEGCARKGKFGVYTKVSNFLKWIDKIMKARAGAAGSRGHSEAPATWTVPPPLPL
Chain of Plasma kallikrein (P03952 20-390 limits assumed): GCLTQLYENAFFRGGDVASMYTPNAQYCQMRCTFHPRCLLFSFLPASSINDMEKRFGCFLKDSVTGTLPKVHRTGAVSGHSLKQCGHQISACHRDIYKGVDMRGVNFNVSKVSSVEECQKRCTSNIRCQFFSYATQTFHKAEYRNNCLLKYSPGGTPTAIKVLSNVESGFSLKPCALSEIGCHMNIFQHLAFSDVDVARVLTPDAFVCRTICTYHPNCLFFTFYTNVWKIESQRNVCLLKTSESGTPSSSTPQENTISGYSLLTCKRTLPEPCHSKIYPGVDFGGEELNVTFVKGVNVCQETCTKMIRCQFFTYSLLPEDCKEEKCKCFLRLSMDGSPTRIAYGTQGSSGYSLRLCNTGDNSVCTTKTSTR
Chain of Plasma kallikrein (P03952 391-638 limits assumed): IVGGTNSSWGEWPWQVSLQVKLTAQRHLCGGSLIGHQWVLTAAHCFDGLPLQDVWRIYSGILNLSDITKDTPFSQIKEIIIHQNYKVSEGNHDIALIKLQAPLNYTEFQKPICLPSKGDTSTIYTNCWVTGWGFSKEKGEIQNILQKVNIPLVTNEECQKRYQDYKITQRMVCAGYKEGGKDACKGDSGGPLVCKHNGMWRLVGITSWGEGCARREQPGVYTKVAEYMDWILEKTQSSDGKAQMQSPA

On to `COC(=O)C1CCCCN1C(=O)C(Cc1cccc(C(=N)N)c1)NS(=O)(=O)c1c(C(C)C)cc(C(C)C)cc1C(C)C` (stereo not drawn), for which the values for the pKi in assay [1], in assay [2] and in assay [3] were 4.48, 6.00 and 5.85, respectively.

`CC(C)c1cc(C(C)C)c(S(=O)(=O)NC(Cc2cccc(C(=N)N)c2)C(=O)N2CCN(C)CC2)c(C(C)C)c1` (stereo not drawn): the negative-log Ki (pKi) in assay [1] was 4.28; in assay [2] it was 4.68; in assay [3] it was 5.52.

On to `CC(C)c1cc(C(C)C)c(S(=O)(=O)NC(Cc2cccc(C(=N)N)c2)C(=O)N2CCNCC2)c(C(C)C)c1` (stereo not drawn), for which the results for the pKi in [1], in [2] and in assay [3] were 4.92, 5.15 and 6.01, respectively.

`CC1CCN(C(=O)C(Cc2cccc(C(=N)N)c2)NS(=O)(=O)c2c(C(C)C)cc(C(C)C)cc2C(C)C)CC1` (stereo not drawn) had a pKi in [2] of 5.40.

In the case of `CC(C)c1cc(C(C)C)c(S(=O)(=O)NC(Cc2cccc(C(=N)N)c2)C(=O)N2CCCCC2C(=O)O)c(C(C)C)c1` (stereo not drawn), the pKi in assay [1] was 5.89; in assay [2], 5.82; in assay [3], 6.30.

Regarding `CC(C)c1cc(C(C)C)c(S(=O)(=O)NC(Cc2cccc(C(=N)N)c2)C(=O)N2CCOCC2)c(C(C)C)c1` (stereo not drawn), the pKi was 5.27 in [1], 5.35 in assay [2] and 6.31 in assay [3].

As for `N=C(N)c1cccc(CC(NS(=O)(=O)c2ccc3ccccc3c2)C(=O)N2CCCC2)c1` (stereo not drawn), the pKi was 4.14 in assay [4] and 4.92 in [2].

As to `CC(C)c1cc(C(C)C)c(S(=O)(=O)NC(Cc2cccc(C(=N)N)c2)C(=O)N2CCCC2)c(C(C)C)c1` (stereo not drawn), the pKi is 4.72 in [1], 5.02 in [2] and 5.41 in [3].

`CC(C)c1cc(C(C)C)c(S(=O)(=O)NC(Cc2cccc(C(=N)N)c2)C(=O)N2CCCCCC2)c(C(C)C)c1` (stereo not drawn): the pKi in assay [1] was 5.36; in [2], 5.55; in assay [3] it was 6.02.

For the compound `N=C(N)c1cccc(CC(NS(=O)(=O)c2ccc3ccccc3c2)C(=O)N2CCOCC2)c1` (stereo not drawn), the pKi in assay [1] was 4.24; in [2] it was 5.11.

With `N=C(N)c1cccc(CC(NS(=O)(=O)c2ccc3ccccc3c2)C(=O)N2CCCCCCC2)c1` (stereo not drawn), the pKi in [1] was 4.72; in assay [2] it was 5.11.

Take `N=C(N)c1cccc(CC(NS(=O)(=O)c2ccc3ccccc3c2)C(=O)N2CCCCCC2)c1` (stereo not drawn): the values for the pKi in [1], in assay [2] and in assay [3] were 4.55, 5.18 and 6.13, respectively.

As to `CCOC(=O)N1CCN(C(=O)[C@H](Cc2cccc(C(=N)N)c2)NS(=O)(=O)c2c(C(C)C)cc(C(C)C)cc2C(C)C)CC1`, the pKi was 5.77 in assay [5]; 6.39 in assay [6]; 5.14 in assay [7]; 6.41 in assay [8]; 5.64 in assay [9]; 6.31 in assay [10]. The pKi was 7.43 in assay [11] and 5.31 in [12].

For the compound `COC(=O)C1CCCN(C(=O)C(Cc2cccc(C(=N)N)c2)NS(=O)(=O)c2c(C(C)C)cc(C(C)C)cc2C(C)C)C1` (stereo not drawn), the negative-log Ki (pKi) was 5.60 in assay [1], 6.00 in [2] and 6.44 in assay [3].

As to `CNC(=O)C1CCN(C(=O)C(Cc2cccc(C(=N)N)c2)NS(=O)(=O)c2c(C(C)C)cc(C(C)C)cc2C(C)C)CC1` (stereo not drawn), the pKi was 5.32 in [1], 5.60 in assay [2] and 6.44 in assay [3].

On to `CCOC(=O)N1CCN(C(=O)C(Cc2cccc(C(=N)N)c2)NS(=O)(=O)c2c(C(C)C)cc(C(C)C)cc2C(C)C)CC1` (stereo not drawn), for which the values for the pKi in assay [1], in assay [2] and in [3] were 6.02, 5.92 and 6.92, respectively.

Consider `CNC(=O)C1CCCN(C(=O)C(Cc2cccc(C(=N)N)c2)NS(=O)(=O)c2c(C(C)C)cc(C(C)C)cc2C(C)C)C1` (stereo not drawn), for which the figures for the pKi in assay [1] and in assay [2] were 4.92 and 6.40, respectively.

Take `CC(C)c1cc(C(C)C)c(S(=O)(=O)NC(Cc2cccc(C(=N)N)c2)C(=O)N2CCN(S(C)(=O)=O)CC2)c(C(C)C)c1` (stereo not drawn): the pKi in [1] was 4.72; in assay [2], 5.10; in assay [3], 6.21.

For `COC(=O)C1CCN(C(=O)C(Cc2cccc(C(=N)N)c2)NS(=O)(=O)c2c(C(C)C)cc(C(C)C)cc2C(C)C)CC1` (stereo not drawn), the results for the pKi in assay [1] and in assay [2] were 5.89 and 5.85, respectively.

Take `CC(C)c1cc(C(C)C)c(S(=O)(=O)NC(Cc2cccc(C(=N)N)c2)C(=O)N2CCCC(C(=O)O)C2)c(C(C)C)c1` (stereo not drawn): the pKi in assay [1] is 4.77; in [2], 5.09.

Take `CC(C)c1cc(C(C)C)c(S(=O)(=O)NC(Cc2cccc(C(=N)N)c2)C(=O)N2CCCCCCC2)c(C(C)C)c1` (stereo not drawn): the values for the pKi in [1], in [2] and in assay [3] were 5.11, 5.49 and 6.08, respectively.

For `CC(C)c1cc(C(C)C)c(S(=O)(=O)NC(Cc2cccc(C(=N)N)c2)C(=O)N2CCC(C(=O)O)CC2)c(C(C)C)c1` (stereo not drawn), the values for the pKi in assay [1], in assay [2] and in [3] were 4.28, 4.92 and 5.19, respectively.

Consider `CC(C)c1cc(C(C)C)c(S(=O)(=O)NC(Cc2cccc(C(=N)N)c2)C(=O)N2CCCCC2)c(C(C)C)c1` (stereo not drawn), for which the values for the pKi in assay [1], in assay [2] and in [3] were 5.29, 5.59 and 5.89, respectively.

For the compound `COC(=O)N1CCN(C(=O)C(Cc2cccc(C(=N)N)c2)NS(=O)(=O)c2c(C(C)C)cc(C(C)C)cc2C(C)C)CC1` (stereo not drawn), the figures for the pKi in assay [2] and in assay [3] were 5.74 and 6.96, respectively.
